Measured values: patent publication US9187458B2, “Cyanoquinoline derivatives” (Tianjin Hemay Bio-Tech Co., LTD., priority 2010, dated 2015)

Columns and labels:
A431 cells = experiment: A431 Cell Growth Inhibition Test (MTT Assay); assay type: cell-based, human; details: Homo sapiens; for IC50: A-431, 68 h incubation
Procedure, shortened: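 Cells seeded at 2500/well in DMEM/F12 with 10% FBS, grown overnight, then exposed to compound for 68 h at 37 °C, 5% CO2. Viability by MTT (0.5 mg/ml, 4 h), DMSO-solubilised, OD 490 nm; IC50 is concentration giving 50% growth inhibition relative to controls.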

Sk-Br-3 cells = experiment: Sk-Br-3 Cell Growth Inhibition Test (SRB Assay); assay type: cell-based; details: Homo sapiens, 91 h incubation
Procedure: Sk-Br-3 Cell Growth Inhibition Test (SRB Assay)
1. Cell strains: Sk-Br-3 (human breast cancer cell strains);
2. SRB: available from Sigmaaldrich, goods number: S9012, lot number: 047K3751. SRB was reserved at the room temperature. 0.4% (w/v) of working solution was formulated with 1% of glacial acetic acid. The solution was reserved at 4° C.; anti-tumor compounds; DMSO
Culture medium: 90% DMEM+10% FBS;
1. A plate (10 cm) of cells in logarithmic growth phase normally cultured was collected. The culture solution was sucked out. The plate was washed with 5 mL of PBS 1-2 times;
2. PBS was sucked out. […] of 0.25% pancreatin was added to infiltrate the cells for 30 s;
3. The pancreatin was sucked out. The culture plate was placed in an incubator. Digestion was carried out for about 1.5-2 min at 37° C.;
4. 4 mL of complete culture solution was added to the culture plate to stop the digestion. The cells were carefully scoured with micropipette (1 ml) to give a uniform single cell suspension;
5. Cell suspension was counted. The suspension was diluted to 1×10^5/ml. The resulting suspension was developed uniformly on a plate by 10000 cells/100 μl per well. The culture plate was incubated overnight under 5% CO2 at 37° C. In day 2, 100 μl of culture solution comprising a compound was added in each well, and further incubated for 91 h under 5% CO2 at 37° C.
6. The culture solution was sucked out. 100 uL of TCA fixed cells which were diluted to 10% were added to each well. The plate was kept in a refrigerator for 1 h at 4° C.
7. TCA stationary liquid was sucked out. Each well was washed with 150 μL of ddH2O five times;
8. After the stationary liquid was cleansed, the plate was dried in the air at the room temperature;
9. 60 μL of SRB staining solution was added in each well. The well was stained for 15 min at the room temperature;
10. The SRB staining solution was sucked out. Each well was washed with 150 μL of 1% glacial acetic acid five times;
11. After the SRB staining solution was cleansed, the plate was dried in the air at the room temperature;
12. 100 μL of 10 mM Tris was added in each well. The plate was vibrated to dissolve out SRB;
13. OD values were determined at 570 nM.
To: OD values of the starting content of cells when the cells were developed on a plate;
PC: OD values of cells after normal growth in control wells without a compound;
Ti: OD values of cells after growth in test wells with a compound;
NC: Background OD values of blank well without a compound and cells
Therefore: Ratio of cells in test wells to normal wells (% of control cell growth)=(Ti−To)/(PC−To)×100%
Ratio GI50 was concentration of a compound at the point of 50%.
Therefore: Ratio of killed cells to inoculated cells (% of killed cells)=(Ti−To)/(To−NC)×100%
LC50 was concentration point of a compound when half of the starting inoculated concentration was reached.
Concentration of a compound at this point is defined as TGI (total growth inhibition).

Fadu cells = experiment: Fadu Cell Growth Inhibition Test (MTT Assay); assay type: cell-based; details: Homo sapiens, 72 h incubation
Procedure, shortened: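 Fadu head and neck cancer cells in EMEM + 10% FBS, 6000 cells/well, dosed next day and incubated 72 h at 37 °C, 5% CO2. MTT 0.5 mg/ml for 3 h, DMSO solubilization, OD at 490 nm; inhibition ratio from positive and negative controls, IC50 from fitted curve.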

AsPC-1 cells = experiment: AsPC-1 Cell Growth Inhibition Test (MTT Assay); assay type: cell-based; details: Homo sapiens, ASPC1, 72 h incubation
Procedure: AsPC-1 Cell Growth Inhibition Test (MTT Assay)
Cell strains: AsPC-1 (human pancreatic cancer cell strains);
1. A plate (10 cm) of cells in logarithmic growth phase normally cultured was collected;
2. The culture solution was sucked out. The plate was washed with 5 ml of PBS 1-2 times;
3. PBS was sucked out. 1.5 ml of 0.25% pancreatin was added to infiltrate the cells for 1 min;
4. The pancreatin was sucked out. The culture plate was placed in an incubator. Digestion was carried out for about 7.5 min at 37° C.;
5. 4.5 ml of complete culture solution was added to the culture plate to stop the digestion. The cells were carefully scoured with micropipette (1 ml) to give a uniform cell suspension. The suspension was implanted into a 96-well cell culture plate by 8000 cells/100 μl per well. The culture plate was incubated overnight under 5% CO2 at 37° C. In day 2, 100 μl of culture solution comprising a compound was added in each well, and further incubated for 72 h under 5% CO2 at 37° C.
6. The culture solution was sucked out;
7. 100 μl of serum-free culture solution containing 0.5 mg/ml MTT was added in each well, and incubated for 3 h;
8. The culture solution was carefully sucked out;
9. 100 μl of DMSO was added in each welland vibrated to dissolve;
10. OD values were determined at 490 nM.
1. Calculation of Relative Inhibition Ratio The inhibition ratio of a compound on cell growth=(PC−n)/(PC−NC)×100%
IC50: Concentration of a compound where inhibition ratio was 50%. IC50 values were fitted with Origin7.5.

Structure (SMILES) | IC50 (A431 cells) | GI50 (Sk-Br-3 cells) | IC50 (Fadu cells) | IC50 (AsPC-1 cells) | inhibition at 1 µM (A431 cells; A-431, 68 h, compound 1 μM, 68 h incubation, read-out: Growth Inhibition Ratio (%))
N#Cc1cnc2cc(O[C@H]3CCOC3)c(NC(=O)/C=C/CN3CCOCC3)cc2c1Nc1ccc(OCc2ccccn2)c(Cl)c1 [Example 152, (S,E)-N-(4-(3-CHLORO-4-(PYRIDIN-2-YL-METHOXY)PHENYLAMINO)-3-CYANO-7-(TETRAHYDROFURAN-3-YL-OXY)QUINOLIN-6-YL)-4-(MORPHOLIN-4-YL)-BUT-2-ENAMIDE] | 0.062 µM | 0.019 µM | 0.17 µM |  | 
Cc1ccccc1COc1ccc(Nc2c(C#N)cnc3cc(OC4CCOC4)c(NC(=O)/C=C/CN(C)C)cc23)cc1Cl (stereo not shown) [Example 17, (E)-N-(4-(4-(2-METHYLBENZYLOXY)-3-CHLOROPHENYLAMINO)-3-CYANO-7-(TETRAHYDROFURAN-3-YL-OXY)QUINOLIN-6-YL)-4-(DIMETHYLAMINO)-BUT-2-ENAMIDE] | 0.194 µM | 0.007 µM |  | 1 µM | 
CC(C)(C)NC/C=C/C(=O)Nc1cc2c(Nc3ccc(OCc4ccccn4)c(Cl)c3)c(C#N)cnc2cc1O[C@H]1CCOC1 [Example 153, (S,E)-N-(4-(3-CHLORO-4-(PYRIDIN-2-YL-METHOXY)PHENYLAMINO)-3-CYANO-7-(TETRAHYDROFURAN-3-YL-OXY)QUINOLIN-6-YL)-4-(TERT-BUTYLAMINO)-BUT-2-ENAMIDE] | 0.053 µM | 0.0068 µM | 0.231 µM |  | 
C#Cc1cccc(Nc2c(C#N)cnc3cc(O[C@H]4CCOC4)c(NC(=O)/C=C/CN(C)Cc4ccccc4)cc23)c1 [Example 149, (S,E)-N-(3-CYANO-4-(3-ETHYNYLPHENYLAMINO)-7-(TETRAHYDROFURAN-3-YL-OXY)QUINOLIN-6-YL)-4-(N-METHYLBENZYLAMINO)-BUT-2-ENAMIDE] | 0.089 µM | 0.644 µM | 0.163 µM |  | 
CN(C)C/C=C/C(=O)Nc1cc2c(Nc3cccc(Br)c3)c(C#N)cnc2cc1OC1CCOC1 (stereo not shown) [Example 7, (E)-N-(4-(3-BROMOPHENYLAMINO)-3-CYANO-7-(TETRAHYDROFURAN-3-YL-OXY)QUINOLIN-6-YL)-4-(DIMETHYLAMINO)-BUT-2-ENAMIDE] | 0.16 µM | 0.213 µM | 0.474 µM |  | 
CN(C)C/C=C/C(=O)Nc1cc2c(Nc3ccc(OCc4ccccc4Cl)c(Cl)c3)c(C#N)cnc2cc1OC1CCOC1 (stereo not shown) [Example 10, (E)-N-(4-(4-(2-CHLOROBENZYLOXY)-3-CHLOROPHENYLAMINO)-3-CYANO-7-(TETRAHYDROFURAN-3-YL-OXY)QUINOLIN-6-YL)-4-(DIMETHYLAMINO)-BUT-2-ENAMIDE] | 0.222 µM | 0.006 µM |  | 1 µM | 
CN(C)C/C=C/C(=O)Nc1cc2c(Nc3ccc(OCc4ccc(Cl)cc4)c(Cl)c3)c(C#N)cnc2cc1OC1CCOC1 (stereo not shown) [Example 16, (E)-N-(4-(4-(4-CHLOROBENZYLOXY)-3-CHLOROPHENYLAMINO)-3-CYANO-7-(TETRAHYDROFURAN-3-YL-OXY)QUINOLIN-6-YL)-4-(DIMETHYLAMINO)-BUT-2-ENAMIDE] | 0.358 µM | 0.036 µM |  | 0.81 µM | 
C#Cc1cccc(Nc2c(C#N)cnc3cc(O[C@H]4CCOC4)c(NC(=O)/C=C/CN(CC)CC)cc23)c1 [Example 143, (S,E)-N-(3-CYANO-4-(3-ETHYNYLPHENYLAMINO)-7-(TETRAHYDROFURAN-3-YL-OXY)QUINOLIN-6-YL)-4-(DIETHYLAMINO)-BUT-2-ENAMIDE] | 0.059 µM | 0.231 µM | 0.127 µM |  | 70%
